According to EPA's ToxValDB 9.5:

What was measured:
Canidae [1] = settings: chronic; duration: 2 years; oral; diet; F; Beagle; neurological, hepatic
Canidae [2] = settings: chronic; duration: 2 years; oral; diet; Dog Other; Central nervous system: Convulsions + Liver: Lesions
Canidae [3] = settings: chronic; oral; M/F; Dog Other; histological lesions in liver, occasional convulsions
Mus musculus [4] = settings: repeat dose other; oral
Megascops sp. = settings: oral
Mus musculus [5] = settings: duration: 13 weeks, oral, M/F, CD1, Hepatotoxic lesions (males)
Rattus norvegicus [6] = settings: subchronic; duration: 13 weeks; oral; gavage; M/F; Fischer 344; Deaths + Body Weight Changes: decrease + Absolute Organ Weight: Right kidney increase, Liver increase, Thymus decrease + Relative Organ …
Mus musculus [7] = settings: subchronic; duration: 13 weeks; oral; gavage; Liver: Lesions
Mus musculus [8] = settings: oral, M/F
Rattus norvegicus [9] = settings: subchronic, M/F
Mus musculus [10] = settings: acute
Cavia porcellus = settings: acute; Inhalation; Guinea Pig
Cavia sp. = settings: acute; Inhalation; Harley
Rattus norvegicus [11] = settings: for LC50 / LD50: acute
Oryctolagus sp. = settings: dermal; for LD50: acute
Gallus sp. = settings: developmental; duration: 5 days; injection; White Leghorn
Anas platyrhynchos = settings: oral
Nycticorax nycticorax = settings: oral
Mus musculus [12] = settings: developmental; duration: 7 days; oral; gavage; M/F; albino; developmental
Rattus norvegicus [13] = settings: subchronic; duration: 90 days; inhalation; M/F; Wistar; hepatic
Chrysomus sp. = settings: oral
Mus musculus [14] = test: LD0; higher = less toxic; settings: acute; oral
[15] = reproduction developmental, oral, diet, Sprague-Dawley, generation: F0
[16] = reproduction developmental, oral, diet, Sprague-Dawley, generation: F1
[17] = reproduction developmental, oral, diet, Sprague-Dawley, generation: F2
[18] = subchronic, duration: 3 months, oral, diet
[19] = subchronic, duration: 90 days, oral, diet
[20] = chronic, duration: 104 weeks, hepatic necrosis
[21] = chronic, duration: 24 months, oral, diet, Sprague-Dawley
[22] = subchronic, duration: 8 weeks, oral, diet, Sprague-Dawley

SMILES: ClC1=C(Cl)[C@]2(Cl)[C@@H]3[C@H]4C[C@H]([C@@H]5O[C@H]45)[C@@H]3[C@@]1(Cl)C2(Cl)Cl [Endrin]
- NOAEL (Canidae [1]): 0.025 mg/kg-day
- NOEL (Canidae [2]): 0.025 mg/kg-day
- LOAEL (Canidae [3]): 0.05 mg/kg-day
- NOEL (Canidae [3]): 0.025 mg/kg-day
- LOAEL (Mus musculus [4]): 0.92 mg/kg-day
- NOAEL (Mus musculus [4]): 0.092 mg/kg-day
- LOAEL (Megascops sp.): 0.1 mg/kg-day
- NOAEL (Megascops sp.): 0.01 mg/kg-day

SMILES: CC1CCc2cc(F)cc3c(=O)c(C(=O)O)cn1c23 (centres undefined) [Flumequine]
- NOEL (Mus musculus [5]; feed): 25 mg/kg-day
- NOEL (Mus musculus [5]; subchronic, diet): 25 mg/kg-day

SMILES: c1ccoc1 [Furan]
- NOEL (Rattus norvegicus [6]): < 4 mg/kg-day
- NOAEL (Mus musculus [7]): 1.4 mg/kg-day
- NOAEL (Mus musculus [8]; subchronic, hepatic lesions): 2 mg/kg-day
- LOAEL (Rattus norvegicus [9]; oral, hepatic lesions): 4 mg/kg-day

SMILES: CCC(C)(CCC(C)C)C(=O)O (centres undefined) [Neodecanoic acid]
- LD50 (Mus musculus [10]; Inhalation, Swiss): > 511 mg/m3
- LC50 (Mus musculus [10]; Inhalation, Swiss albino): > 511 mg/m3
- LC50 (Mus musculus [10]; inhalation, Swiss): > 3 µg/mL
- LD50 (Mus musculus [10]; inhalation, Swiss): > 3 mg/L
- LD50 (Cavia porcellus): > 511 mg/m3
- LC50 (Cavia sp.): > 511 mg/m3
- LD50 (Cavia sp.): > 511 mg/m3
- LC50 (Rattus norvegicus [11]; Inhalation, Wistar): > 511 mg/m3
- LD50 (Rattus norvegicus [11]; Inhalation, Wistar): > 511 mg/m3
- LC50 (Rattus norvegicus [11]; inhalation, Wistar): > 3 µg/mL
- LD50 (Rattus norvegicus [11]; inhalation, Wistar): > 3 mg/L
- NOAEL (Rattus norvegicus [11]; [15]): 1500 ppm
- NOAEL (Rattus norvegicus [11]; [16]): 1500 ppm
- NOAEL (Rattus norvegicus [11]; [17]): 1500 ppm
- LOAEL (Rattus norvegicus [11]; [18]): 144 mg/kg-day
- NOAEL (Rattus norvegicus [11]; [18]): 48 mg/kg-day
- LD50 (Oryctolagus sp.): > 3160 mg/kg
- LD50 (Oryctolagus sp.; occlusive): > 3160 mg/kg
- NOAEL (Oryctolagus sp.; repeat dose other, M): 2280 mg/kg-day

SMILES: CCCCCCCCCc1ccc(OP(Oc2ccc(CCCCCCCCC)cc2)Oc2ccc(CCCCCCCCC)cc2)cc1 [Nonylphenolphosphite(3:1)]
- NOAEL (Gallus sp.): 5 mg
- LD50 (Mus musculus [10]; oral, gavage): > 10000 mg/kg
- LD50 (Rattus norvegicus [11]; dermal, semiocclusive, RAI f1): > 2000 mg/kg
- LD50 (Rattus norvegicus [11]; injection, Intraperitoneal, RAI f1): > 1000 mg/kg
- NOAEL (Rattus norvegicus [11]; developmental, duration: 4 weeks, oral, gavage, Sprague-Dawley): 1000 mg/kg-day
- NOAEL (Rattus norvegicus [11]; reproduction developmental, duration: 2 years, oral, diet, generation: F1): 3300 ppm
- NOAEL (Rattus norvegicus [11]; reproduction developmental, duration: 4 weeks, oral, gavage, F, Sprague-Dawley): 1000 mg/kg-day
- NOAEL (Rattus norvegicus [11]; reproduction developmental, duration: 4 weeks, oral, gavage, M, Sprague-Dawley): 200 mg/kg-day
- NOAEL (Rattus norvegicus [11]; reproduction developmental, duration: 4 weeks, oral, gavage, Sprague-Dawley, generation: F0): 200 mg/kg-day
- NOAEL (Rattus norvegicus [11]; reproduction developmental, duration: 4 weeks, oral, gavage, Sprague-Dawley, generation: F1): 200 mg/kg-day
- NOAEL (% diet) (Rattus norvegicus [11]; subchronic, duration: 12 weeks, oral, diet): 1
- LOAEL (% diet) (Rattus norvegicus [11]; [19]): 5
- NOAEL (% diet) (Rattus norvegicus [11]; [19]): 1
- LD50 (Oryctolagus sp.; semiocclusive, New Zealand): > 2000 mg/kg

SMILES: C[Se]CCC(N)C(=O)O (centres undefined) [Selenomethionine]
- LOAEL (Anas platyrhynchos): 0.8 mg/kg-day
- NOAEL (Anas platyrhynchos): 0.4 mg/kg-day
- NOAEL (Nycticorax nycticorax): 1.8 mg/kg-day
- LOAEL (Megascops sp.): 1.5 mg/kg-day
- NOAEL (Megascops sp.): 0.44 mg/kg-day

SMILES: ClC1=C(Cl)C2(Cl)C3C(Cl)C(Cl)CC3C1(Cl)C2(Cl)Cl (centres undefined) [Technical chlordane]
- LOAEL (Mus musculus [12]): 1 mg/kg-day
- NOAEL (Rattus norvegicus [13]): 0.1 mg/m3
- LOAEL (Mus musculus [8]; [20]): 0.75 mg/kg-day
- NOAEL (Mus musculus [8]; [20]): 0.15 mg/kg-day
- NOAEL (Rattus norvegicus [9]; inhalation, hepatic effects): 1 mg/m3
- LOAEL (Mus musculus [4]): 9.2 mg/kg-day
- NOAEL (Mus musculus [4]): 4.6 mg/kg-day
- LOAEL (Chrysomus sp.): 10.7 mg/kg-day
- NOAEL (Chrysomus sp.): 2.14 mg/kg-day

SMILES: O=C(Nc1ccc(Cl)cc1)Nc1ccc(Cl)c(Cl)c1 [Triclocarban]
- LD0 (Mus musculus [14]): > 5000 mg/kg
- LD50 (Mus musculus [10]; injection, Intraperitoneal): 2100 mg/kg
- LD50 (Rattus norvegicus [11]; oral, gavage, Sprague-Dawley): > 50100 mg/kg
- LOAEL (Rattus norvegicus [11]; [21]): 75 mg/kg-day
- NOAEL (Rattus norvegicus [11]; [21]): 25 mg/kg-day
- NOAEL (Rattus norvegicus [11]; developmental, oral, diet, Sprague-Dawley): > 3000 ppm
- NOAEL (Rattus norvegicus [11]; reproduction developmental, oral, diet, F, Sprague-Dawley): > 3000 ppm
- NOAEL (Rattus norvegicus [11]; [15]): 3000 ppm
- NOAEL (Rattus norvegicus [11]; [16]): 1000 ppm
- NOAEL (Rattus norvegicus [11]; [17]): 3000 ppm
- LOAEL (Rattus norvegicus [11]; [22]): 250 mg/kg-day
- NOAEL (Rattus norvegicus [11]; [22]): 75 mg/kg-day
- LD50 (Oryctolagus sp.; occlusive, New Zealand): > 10000 mg/kg
